Test results reported in publication PMC9090415, “Discovery of small molecule inhibitors of Plasmodium falciparum apicoplast DNA polymerase” (Journal of Enzyme Inhibition and Medicinal Chemistry, 2022).

Target: P. falciparum apicoplast DNA polymerase (Pf-apPOL) (Plasmodium falciparum, UniProt Q8ILY1)
Experiment: Fluorescence-based high-throughput DNA polymerase assay (molecular beacon), primary screen and dose-response
Assay type: biochemical
Settings: for DNA Pol: 90 min, 10 µM
Procedure: The HT assay employs a molecular beacon, a stem-loop DNA template with a Cy3 dye and the Black Hole Quencher on the 3′ and 5′ ends of the DNA, respectively. Pf-apPOL concentration is based on a calculated absorptivity of ε280 = 56750 M^−1 cm^−1. Reactions were carried out at 25 °C, using Corning 3575 […] (well-volume, 20 µL). Assays testing for compound inhibition composed of reaction buffer (pH 7.9 in 50 mM potassium acetate, 20 mM Tris-acetate and 10 mM magnesium acetate), Pf-apPOL (20 nM), DNA substrate (20 nM), dNTPs (6 µM), and compound (10 µM in DMSO). The DNA and nucleotide substrates (dNTPs) were at concentrations of 20 nM and 6 µM, respectively, in the assay. Pf-apPOL was incubated in the reaction buffer with dNTPs and the compound of interest (10 µM, in the assay) at 25 °C for 10 min. The DNA substrate was then added and the reaction was allowed to proceed for 90 min at 25 °C.
Each assay plate contained 16 negative controls (no Pf-apPOL, DMSO present) and 16 positive controls (Pf-apPOL present, no DMSO). The fluorescence of each well was determined using a BioTek Synergy Neo fluorescence plate reader using excitation and emission wavelengths of 555 and 570 nm, respectively.
In the above, Min is the average of fluorescence emission of the negative controls (substrate only), Max the average fluorescence emission from the positive controls (enzyme + substrate), and Test the emission from the assays in the presence of compounds (enzyme + compound + substrates). […] […] The IC50 of each compound was determined using Equation (2): (2) IC50= Vmax/(1+ (I/IC50)^n)
In the above, n measures cooperativity, with n > 1 indicating synergistic binding of more than a single molecule of the compound.
To identify apPOL inhibitors we utilised our previously developed high-throughput DNA polymerase assay. The HT assay is based on a molecular beacon DNA template that forms a stem-loop with a Cy3 dye and the Black Hole Quencher on the 3′ and 5′ ends of the DNA, respectively. DNA polymerase activity extends an annealed primer through the stem region, displacing the fluorophore from the quencher, thereby increasing its fluorescence (Figure 1(A)). The assay accurately recapitulates the kinetic behaviour of apPOL, as measured through more conventional low-throughput gel-based assays. The Z′ factor for the assay described here was 0.9 across all plates (data not shown).
Figure 1. High-throughput screening. (A) The fluorescent-based DNA polymerase assay used to screen the compound libraries. The DNA template strand is a hairpin loop with a primer annealed to the loop. The 3’ end of the primer is 11 bases away from the 6 bp duplex. Strand displacement activity of the DNA polymerase separates the Cy3 dye from the Black hole quencher leading to an increase in fluorescent signal. (B) The high-throughput assay workflow. The DNA polymerase is incubated with […] compound for 10 min prior to addition of the hairpin substrate. The reaction is quenched at 3 different time points and the fluorescent signal is measured and % inhibition is determined using the provided equation.

P. falciparum apicoplast DNA polymerase (Pf-apPOL), sequence (Q8ILY1 entry or part of it): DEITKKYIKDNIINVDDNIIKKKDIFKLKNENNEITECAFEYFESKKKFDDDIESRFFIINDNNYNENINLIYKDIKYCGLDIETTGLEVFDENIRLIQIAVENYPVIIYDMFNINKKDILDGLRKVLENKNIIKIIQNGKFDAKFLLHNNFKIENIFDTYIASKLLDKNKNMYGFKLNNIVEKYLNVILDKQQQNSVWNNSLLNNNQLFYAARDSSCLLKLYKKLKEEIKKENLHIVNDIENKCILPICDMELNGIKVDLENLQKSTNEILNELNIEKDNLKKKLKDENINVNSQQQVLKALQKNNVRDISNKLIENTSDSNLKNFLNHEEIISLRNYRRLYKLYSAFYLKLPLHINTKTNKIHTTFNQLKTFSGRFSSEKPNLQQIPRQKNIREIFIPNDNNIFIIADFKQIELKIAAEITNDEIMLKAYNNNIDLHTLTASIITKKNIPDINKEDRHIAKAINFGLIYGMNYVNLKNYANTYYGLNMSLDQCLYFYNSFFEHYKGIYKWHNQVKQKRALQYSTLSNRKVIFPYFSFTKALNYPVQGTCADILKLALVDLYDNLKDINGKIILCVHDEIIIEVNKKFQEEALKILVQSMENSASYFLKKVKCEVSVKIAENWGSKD

O=C(CSc1nc2ccccc2s1)Nc1ncc([N+](=O)[O-])s1 [KU0019667]
% inhibition Apo pol 10' (DRC-1, concentration 2.5): 10.9138%
% inhibition Apo pol 10' (DRC-1, concentration 5): 29.1635%
% inhibition Apo pol 10' (DRC-1, concentration 10): 61.6987%
% inhibition Apo pol 10' (DRC-1, concentration 20): 83.6526%
% inhibition Apo pol 10' (DRC-1, concentration 40): 89.1806%
% inhibition Apo pol 10' (DRC-1, concentration 80): 87.7336%
% inhibition Apol 90' (DRC-1, concentration 2.5): 0.4185%
% inhibition Apol 90' (DRC-1, concentration 5): 12.4734%
% inhibition Apol 90' (DRC-1, concentration 10): 42.9699%
% inhibition Apol 90' (DRC-1, concentration 20): 72.9689%
% inhibition Apol 90' (DRC-1, concentration 40): 86.0812%
% inhibition Apol 90' (DRC-1, concentration 80): 87.9131%
% inhibition apPOL 180' (DRC-1, concentration 2.5): -6.305%
% inhibition apPOL 180' (DRC-1, concentration 5): -0.1201%
% inhibition apPOL 180' (DRC-1, concentration 10): 24.654%
% inhibition apPOL 180' (DRC-1, concentration 20): 57.312%
% inhibition apPOL 180' (DRC-1, concentration 40): 80.0815%
% inhibition apPOL 180' (DRC-1, concentration 80): 84.5661%
% inhibition Apo pol 5' (DRC-2, concentration 2.5): 0.175%
% inhibition Apo pol 5' (DRC-2, concentration 5): -22%
% inhibition Apo pol 5' (DRC-2, concentration 10): -38%
% inhibition Apo pol 5' (DRC-2, concentration 20): -73%
% inhibition Apo pol 5' (DRC-2, concentration 40): -86%
% inhibition Apo pol 5' (DRC-2, concentration 80): -130%
% inhibition Apol 40' (DRC-2, concentration 2.5): -1.35%
% inhibition Apol 40' (DRC-2, concentration 5): -10%
% inhibition Apol 40' (DRC-2, concentration 10): -13%
% inhibition Apol 40' (DRC-2, concentration 20): -32%
% inhibition Apol 40' (DRC-2, concentration 40): -29%
% inhibition Apol 40' (DRC-2, concentration 80): -70%
% inhibition ApPOL 90' (DRC-2, concentration 2.5): -3%
% inhibition ApPOL 90' (DRC-2, concentration 5): -10%
% inhibition ApPOL 90' (DRC-2, concentration 10): -10%
% inhibition ApPOL 90' (DRC-2, concentration 20): -23%
% inhibition ApPOL 90' (DRC-2, concentration 40): -14%
% inhibition ApPOL 90' (DRC-2, concentration 80): -45%
% inhibition apPOL 180' (DRC-2, concentration 2.5): -13%
% inhibition apPOL 180' (DRC-2, concentration 5): -17%
% inhibition apPOL 180' (DRC-2, concentration 10): -18%
% inhibition apPOL 180' (DRC-2, concentration 20): -23%
% inhibition apPOL 180' (DRC-2, concentration 40): -7%
% inhibition apPOL 180' (DRC-2, concentration 80): -23%
% inhibition apPOL 180' (conc. 2.5, DRC-2): -13%
% inhibition Apol 40' (conc. 5, DRC-2): -10%
% inhibition ApPOL 90' (conc. 5, DRC-2): -10%
% inhibition Apol 40' (conc. 10, DRC-2): -13%
% inhibition ApPOL 90' (conc. 10, DRC-2): -10%
% inhibition ApPOL 90' (conc. 20, DRC-2): -23%
% inhibition apPOL 180' (conc. 20, DRC-2): -23%
% inhibition apPOL 180' (conc. 80, DRC-2): -23%
DNA Pol (primary screen value by plate and well): 67
DNA Pol (primary screen value of the 186 hits, unit not given): 67
